The values that follow come from patent US20150374658A1, “COMPOSITION COMPRISING LICORICIDINE” (ANALYTICON DISCOVERY GMBH, priority 2012, published 2015).

In brackets after ≈: the same amount, converted by molar mass.

Data set [1] can be described thus: Stability assessment of licoricidine using different stabilizers (HPLC peak area, storage at 40° C.). The class given is physicochemical. Particulars: HPLC UV 225 nm. On the procedure: Five times 5 mg ethanolic extract (0.1%) were dissolved in 1.5 ml ethanol and 3.5 ml buffer pH 7. • To the first batch 20 mg citric acid (0.4%) were added as a stabilizer and the resulting batch was stored at 40° C. • To the second batch 50 mg citric acid (1.0%) were added as a stabilizer and the resulting batch was stored at 40° C. • To the third batch 20 mg ascorbic acid (0.4%) were added as a stabilizer and the resulting batch was stored at 40° C. • To the fourth batch 50 mg ascorbic acid (1.0%) were added as a stabilizer and the resulting batch was stored at 40° C. • The fifth batch was stored as a reference at −18° C.
30 mg lipophilic extract were dissolved in 30 ml safflower oil at 80° C.
The obtained solution was split into three batches: • To the first batch 10 mg/ml ascorbic acid palmitate were added as a stabilizer and the resulting batch was stored at 40° C. • To the second batch 10 mg/ml BHA (Butylhydroxyanisol) were added as a stabilizer and the resulting batch was stored at 40° C. • The third batch was stored as a reference at −18° C.
Dissolve 120 mg lipophilic extract in 30 ml safflower oil at 80° C.
Split in tree (3) batches: • Add to the first batch 10 mg/ml ascorbic acid palmitate as a stabilizer and store at 40° C. • Add to the second batch 10 mg/ml BHA (Butylhydroxyanisol) as a stabilizer and store at 40° C. • Freeze the third batch as a reference at −18° C.
• Add to 10 ml maceration oil 100 mg ascorbic acid palmitate as a stabilizer and store at 40° C. • Add to 10 ml maceration oil 100 mg BHA (Butylhydroxyanisol) as a stabilizer and store at 40° C. • Freeze 10 ml maceration oil as a reference at −18° C.
0.5 ml of the respective oil prepared according to any one of examples 5.1 to 5.4 was extracted with 3 ml methanole/water (9:1), centrifugated and the supernatant was used for the analysis.
• Column: Kromasil C18, 125×4 mm with pre-column • Detection: UV (225 nm) • Mobile Phase: A: water with 5 mM ammoniumformiate and 0.1% formic acid; • B: acetonitrile/methanol=1:1, 5 mM ammoniumformiate and 0.1% formic acid • Gradient: from 60% B to 80% B in 30 min • Flow: 0.8 ml/min • The retention time of the reference peak (licoricidine) is 16.9 (±0.2) min.

Data set [2] deals with Corynebacterium xerosis DSM 20743 (ATCC 373). The data set is described as follows: Classic assay, biofilm formation (crystal violet, CV580). The class given is cell-based. To be noted: read-out: IC50, biofilm growth mode. The procedure:
(§1) Corynebaterium xerosis is usually characterized as a rod-like gram positive bacterium. Under laboratory conditions (96 well plates) it takes ˜24 hours until Corynebaterium xerosis reaches stationary growth phase. Within this period planktonic growth can be quantified by spectroscopic means and a biofilm can be detected and quantified by standard crystal violet incorporation (c.f. O'Toole & Kolter, 1998, Mol. Microbiol. 28(3), 449-461). Planktonic growth denotes growth of non-adherent cells in the bulk liquid whereas biofilm denotes growth of cells adherent to solid surfaces.
(§2) Routine susceptibility testing of C. xerosis in high throughput format was done by simultaneous addition of test compounds and inoculum (“classic assay”). Growth of untreated (i.e. no extracts or test compounds added, control) planktonic cells ceased 7 hours after inoculation, and decreased by 13% at 24 hours. Biofilm development reached maximum 10 hours upon inoculation and kept constant for the rest of the test period (30 hours).
(§3) Formation of planktonic and biofilm cells was determined 18-24 hours after inoculation, thus at a time when some planktonic cells lysed. […]
(§4) Effects of test compounds were evaluated by comparison of turbidity (optical density, OD580) and crystal violet staining (biofilm; CV580) of treated and untreated samples (control; 100%). […]

For data set [3] the test system is unchanged. The data set is described as follows: Classic assay, planktonic growth (OD580). Format: cell-based. To be noted: read-out: IC50, planktonic growth. On the procedure: as §1, §2, §3, §4

Usually IC50 stands for the point on the concentration scale where inhibition reaches its midpoint.

Turning to `COc1c(CC=C(C)C)c(O)cc2c1C[C@H](c1ccc(O)c(CC=C(C)C)c1O)CO2` [licoricidine], the “decrease of the peak area of licoricidine” value is “lower than 20%” in data set [1] (aqueous solution (buffer pH 7 in addition of 30% ethanol) with 0.1% ethanolic extract and 1% citric acid, eight (8) weeks storage at 40° C.); “lower than 20%” in data set [1] (maceration oil with addition of 1% BHA, twelve (12) weeks storage at 40° C.); “lower than 20%” in data set [1] (safflower oil with 0.1% lipophilic extract, 1% BHA, twelve (12) weeks storage at 40° C.); “lower than 20%” in data set [1] (safflower oil with 0.4% lipophilic extract, 1% BHA, twelve (12) weeks storage at 40° C.). In addition, in data set [2] (serial dilutions, classic assay), the concentration for half-maximal inhibition (IC50) is 4.3 µg/mL (≈ 10.1 µM).
For the compound `Oc1cc(Cl)ccc1Oc1ccc(Cl)cc1Cl` [Triclosan, 5-chloro-2-(2,4-dichlorophenoxy)-phenol, reference compound], the figures for the IC50 in data set [3] and in data set [2] were 1.7 µg/mL (≈ 5.87 µM) and 0.6 µg/mL (≈ 2.07 µM), respectively.
